Test results published in patent US20100286145A1, “ISOPHTHALAMIDE DERIVATIVES INHIBITING BETA-SECRETASE ACTIVITY” (CoMentis, Inc., priority 2007, published 2010).
Read-outs that look alike come from different tables or passages of the source.

What was measured:
memapsin 2 = memapsin 2 (Homo sapiens, UniProt P56817); test: Inhibition of memapsin 2 beta-secretase activity (fluorogenic substrate FS-2); format: biochemical; conditions: memapsin 2, pH 4, 37° C., read-out: M2Ki
Method in brief: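 Memapsin 2 pre-incubated 20 min with compound at pH 4, 37° C, then FS-2 substrate (MCA-SEVNLDAEFK-DNP, APP Swedish cleavage site) added. Rate of fluorescence increase compared with uninhibited controls, fitted to a tight-binding inhibition model.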

[1] = tested on: Aβ production in Chinese hamster ovary cells that over-express human APP695 with the London and Swedish mutations; test: Cellular Aβ IC50 determination (Aβ40 sandwich ELISA); format: cell-based; conditions: cellular Aβ production, read-out: IC50
Procedure: The potency of compounds against memapsin 2 activity was determined in a cellular assay of Aβ production. […] Chinese hamster ovary cells that over-express human APP695 with the London and Swedish mutations were seeded in multi-well plates at 10% confluency. Compounds are dissolved in DMSO to concentrations near 1 mM, and diluted into culture media to a final concentration near 4 μM (final 0.4% DMSO). […] Aliquots were removed and assayed for Aβ40 content using a sandwich ELISA (BioSource International). Amount of Aβ40 over the range of concentration of compounds, relative to control incubations, were fit to a 4-parameter IC50 model.

Sequence of memapsin 2 (P56817 46-501): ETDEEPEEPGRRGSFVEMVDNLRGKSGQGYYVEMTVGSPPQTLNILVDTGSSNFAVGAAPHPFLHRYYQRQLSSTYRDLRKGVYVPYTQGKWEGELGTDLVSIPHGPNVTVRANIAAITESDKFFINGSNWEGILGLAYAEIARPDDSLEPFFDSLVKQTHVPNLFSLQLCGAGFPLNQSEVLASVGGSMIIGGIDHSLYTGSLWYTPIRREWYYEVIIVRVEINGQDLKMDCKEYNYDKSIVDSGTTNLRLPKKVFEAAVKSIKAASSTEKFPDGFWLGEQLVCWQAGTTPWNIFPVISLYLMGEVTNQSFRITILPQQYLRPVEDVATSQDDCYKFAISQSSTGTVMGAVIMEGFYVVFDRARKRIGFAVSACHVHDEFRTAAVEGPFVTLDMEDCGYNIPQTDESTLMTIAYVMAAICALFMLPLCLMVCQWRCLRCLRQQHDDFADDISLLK

Ki (memapsin 2; 20 minutes pre-incubation) | Ki (memapsin 2; fluorogenic substrate FS-2) | Molecule | further results
< 300 nM |  | COc1cccc(CN(C)C[C@@H](O)[C@H](Cc2ccccc2)NC(=O)c2cccc(C(=O)N(C)Cc3nc(C)cs3)c2)c1 [Compound 1, N^1-((2S,3R)-3-hydroxy-4-((3-methoxybenzyl)(methyl)amino)-1-phenylbutan-2-yl)-N^3-methyl-N^3-((4-methylthiazol-2-yl)methyl)isophthalamide] | IC50 [1]: < 1000 nM
< 300 nM |  | COc1cccc(CNC[C@@H](O)[C@H](Cc2ccccc2)NC(=O)c2cc(C(=O)N(C)Cc3nc(C)cs3)cc(C(C)(C)C)c2)c1 [Compound 2, 5-tert-butyl-N1-((2S,3R)-3-hydroxy-4-(3-methoxybenzylamino)-1-phenylbutan-2-yl)-N3-methyl-N3-((4-methylthiazol-2-yl)methyl)isophthalamide] | IC50 ([1]; Cricetulus griseus): < 1000 nM
< 300 nM |  | COc1cccc(CNC[C@@H](O)[C@H](Cc2ccccc2)NC(=O)c2cc(F)cc(C(=O)N(C)Cc3nc(C)cs3)c2)c1 [Compound 4, 5-fluoro-N1-((2S,3R)-3-hydroxy-4-(3-methoxybenzylamino)-1-phenylbutan-2-yl)-N3-methyl-N3-((4-methylthiazol-2-yl)methyl)isophthalamide] | IC50 ([1]; Cricetulus griseus): < 1000 nM
< 300 nM |  | Cc1csc(CN(C)C(=O)c2cccc(C(=O)N[C@@H](Cc3ccccc3)[C@H](O)CNCc3cc(C(C)C)ccn3)c2)n1 [Compound 5, N1-((2S,3R)-3-hydroxy-4-((4-isopropylpyridin-2-yl)methylamino)-1-phenylbutan-2-yl)-N3-methyl-N3-((4-methylthiazol-2-yl)methyl)isophthalamide] | IC50 ([1]; Cricetulus griseus): < 1000 nM
> 501 nM |  | COc1cccc(CNC[C@@H](O)[C@H](Cc2ccccc2)NC(=O)c2cccc(C(=O)N(C)Cc3ncc(C)s3)c2)c1 [Compound 6, N1-((2S,3R)-3-hydroxy-4-(3-methoxybenzylamino)-1-phenylbutan-2-yl)-N3-methyl-N3-((5-methylthiazol-2-yl)methyl)isophthalamide] | IC50 ([1]; Cricetulus griseus): > 5000 nM
< 300 nM |  | COc1cccc(CNC[C@@H](O)[C@H](Cc2ccccc2)NC(=O)c2cc(C)cc(C(=O)N(Cc3nc(C)cs3)C3CC3)c2)c1 [Compound 9, N1-cyclopropyl-N3-((2S,3R)-3-hydroxy-4-(3-methoxybenzylamino)-1-phenylbutan-2-yl)-5-methyl-N1-((4-methylthiazol-2-yl)methyl)isophthalamide] | IC50 ([1]; Cricetulus griseus): < 1000 nM
 | < 300 nM | Cc1csc(CN(C)C(=O)c2cc(C(=O)N[C@@H](Cc3ccccc3)[C@H](O)CNCc3cccc(C(F)(F)F)c3)cc(-c3ccco3)c2)n1 [Compound 305, 5-(furan-2-yl)-N1-((2S,3R)-3-hydroxy-1-phenyl-4-(3-(trifluoromethyl)benzylamino)butan-2-yl)-N3-methyl-N3-((4-methylthiazol-2-yl)methyl)isophthalamide] | 
 | < 300 nM | COc1cccc(CNC[C@@H](O)[C@H](Cc2cc(F)cc(F)c2)NC(=O)c2cc(C(C)=O)cc(C(=O)N[C@H](C)c3ccccc3)c2)c1 [Compound 306, 5-acetyl-N1-((2S,3R)-1-(3,5-difluorophenyl)-3-hydroxy-4-(3-methoxybenzylamino)butan-2-yl)-N3-((R)-1-phenylethyl)isophthalamide] | 
 | > 501 nM | COc1cccc(CNC[C@@H](O)[C@H](Cc2ccccc2)NC(=O)c2cc(C(=O)N(C)Cc3nc(C)cs3)cc(C3CCC(O)C3)c2)c1 (stereo partly drawn) [Compound 307, N1-((2S,3R)-3-hydroxy-4-(3-methoxybenzylamino)-1-phenylbutan-2-yl)-5-(3-hydroxycyclopentyl)-N3-methyl-N3-((4-methylthiazol-2-yl)methyl)isophthalamide] | 
 | < 300 nM | CC(=O)c1cc(C(=O)N[C@@H](Cc2ccccc2)[C@H](O)CNCc2cncc(C(C)C)c2)cc(C(=O)N[C@H](C)c2ccccc2)c1 [Compound 308, 5-acetyl-N1-((2S,3R)-3-hydroxy-4-((5-isopropylpyridin-3-yl)methylamino)-1-phenylbutan-2-yl)-N3-((R)-1-phenylethyl)isophthalamide] | 
 | > 501 nM | COc1cccc(S(=O)(=O)NC[C@@H](O)[C@H](Cc2ccccc2)NC(=O)c2cccc(C(=O)N(C)Cc3nc(C)cs3)c2)c1 [Compound 309, N1-((2S,3R)-3-hydroxy-4-(3-methoxyphenylsulfonamido)-1-phenylbutan-2-yl)-N3-methyl-N3-((4-methylthiazol-2-yl)methyl)isophthalamide] | 
 | > 501 nM | Cc1csc(CN(C)C(=O)c2cccc(C(=O)N[C@@H](Cc3ccccc3)[C@H](O)CNS(=O)(=O)c3cccc(C(F)(F)F)c3)c2)n1 [Compound 310, N1-((2S,3R)-3-hydroxy-1-phenyl-4-(3-(trifluoromethyl)phenylsulfonamido)butan-2-yl)-N3-methyl-N3-((4-methylthiazol-2-yl)methyl)isophthalamide] | 
 | < 300 nM | Cc1csc(CN(C)C(=O)c2cccc(C(=O)N[C@@H](Cc3ccccc3)[C@H](O)CNCc3cc(OC(=O)CN(C)C)cc(C(C)C)c3)c2)n1 [Compound 311, 3-(((2R,3S)-2-hydroxy-3-(3-(methyl((4-methylthiazol-2-yl)methyl)carbamoyl)benzamido)-4-phenylbutylamino)methyl)-5-isopropylphenyl 2-(dimethylamino)acetate] | 
 | > 501 nM | Cc1csc(CN(C)C(=O)c2cccc(C(=O)N[C@@H](Cc3ccccc3)[C@H](O)CN(C)Cc3cncc(C(C)C)c3)c2)n1 [Compound 312, N1-((2S,3R)-3-hydroxy-4-(((5-isopropylpyridin-3-yl)methyl)(methyl)amino)-1-phenylbutan-2-yl)-N3-methyl-N3-((4-methylthiazol-2-yl)methyl)isophthalamide] | 
 | < 300 nM | Cc1csc(CN(C)C(=O)c2cccc(C(=O)N[C@@H](Cc3ccccc3)[C@H](O)CNCc3cncc(C(C)CO)c3)c2)n1 (stereo partly drawn) [Compound 313, N1-((2S,3R)-3-hydroxy-4-((5-(1-hydroxypropan-2-yl)pyridin-3-yl)methylamino)-1-phenylbutan-2-yl)-N3-methyl-N3-((4-methylthiazol-2-yl)methyl)isophthalamide] | 
 | < 300 nM | Cc1csc(CN(C)C(=O)c2cccc(C(=O)N[C@@H](Cc3ccccc3)[C@H](O)CNCc3cncc(C(C)CO)c3)c2)n1 (stereo partly drawn) [Compound 314, N1-((2S,3R)-3-hydroxy-4-((5-(1-hydroxypropan-2-yl)pyridin-3-yl)methylamino)-1-phenylbutan-2-yl)-N3-methyl-N3-((4-methylthiazol-2-yl)methyl)isophthalamide] | 
 | < 300 nM | CC(C)c1cncc(CNC[C@@H](O)[C@H](Cc2ccccc2)NC(=O)c2cccc(C(=O)N(C)Cc3nc(Br)cs3)c2)c1 [Compound 315, N1-((4-bromothiazol-2-yl)methyl)-N3-((2S,3R)-3-hydroxy-4-((5-isopropylpyridin-3-yl)methylamino)-1-phenylbutan-2-yl)-N1-methylisophthalamide] | 
 | < 300 nM | CC(C)c1cncc(CNC[C@@H](O)[C@H](Cc2ccccc2)NC(=O)c2cccc(C(=O)N(C)Cc3nc(CO)cs3)c2)c1 [Compound 316, N1-((2S,3R)-3-hydroxy-4-((5-isopropylpyridin-3-yl)methylamino)-1-phenylbutan-2-yl)-N3-((4-(hydroxymethyl)thiazol-2-yl)methyl)-N3-methylisophthalamide] | 
 | < 300 nM | Cc1csc(CN(C)C(=O)c2cc(C(=O)N[C@@H](Cc3ccccc3)[C@H](O)CNCc3cccc(C(F)(F)F)c3)cc(-c3cccc(N(C)C(=O)OC(C)(C)C)c3)c2)n1 [Compound 317, tert-butyl 3′-((2S,3R)-3-hydroxy-1-phenyl-4-(3-(trifluoromethyl)benzylamino)butan-2-ylcarbamoyl)-5′-(methyl((4-methylthiazol-2-yl)methyl)carbamoyl)biphenyl-3-yl(methyl)carbamate] | 
 | < 300 nM | CC(C)c1cncc(CNC[C@@H](O)[C@H](Cc2ccccc2)NC(=O)c2cccc(C(=O)N(C)Cc3nccs3)c2)c1 [Compound 318, N1-((2S,3R)-3-hydroxy-4-((5-isopropylpyridin-3-yl)methylamino)-1-phenylbutan-2-yl)-N3-methyl-N3-(thiazol-2-ylmethyl)isophthalamide] | 
 | < 300 nM | C=C(C)c1cncc(CNC[C@@H](O)[C@H](Cc2ccccc2)NC(=O)c2cccc(C(=O)N(C)Cc3nc(CO)cs3)c2)c1 [Compound 319, N1-((2S,3R)-3-hydroxy-1-phenyl-4-((5-(prop-1-en-2-yl)pyridin-3-yl)methylamino)butan-2-yl)-N3-((4-(hydroxymethyl)thiazol-2-yl)methyl)-N3-methylisophthalamide] | 
 | < 300 nM | CCn1cc(CNC[C@@H](O)[C@H](Cc2ccccc2)NC(=O)c2cccc(C(=O)N(C)Cc3nc(C)cs3)c2)cn1 [Compound 320, N1-((2S,3R)-4-((1-ethyl-1H-pyrazol-4-yl)methylamino)-3-hydroxy-1-phenylbutan-2-yl)-N3-methyl-N3-((4-methylthiazol-2-yl)methyl)isophthalamide] | 
> 501 nM |  | N3-((2S,3R)-3-hydroxy-4-(3-methoxybenzylamino)-1-phenylbutan-2-yl)-N1,4-dimethyl-N1-((4-methylthiazol-2-yl)methyl)isophthalamide and N1-((2S,3R)-3-hydroxy-4-(3-methoxybenzylamino)-1-phenylbutan-2-yl)-N3,4-dimethyl-N3-((4-methylthiazol-2-yl)methyl)isophthalamide (regioisomeric mixture) [Compound 42] | 
